According to patent US6737383B1, “Herbicidal oxadiazolidines” (priority 1999, dated 2004):

How the values were obtained:
common pursiane = assay: Test D common purslane; type: in vivo, Portulaca oleracea; conditions: Postemergence, 0 to 100 scale
common ragweed [1] = assay: Test D common ragweed; type: in vivo, Ambrosia elatior; conditions: Postemergence, 0 to 100 scale
common groundsel = assay: Test D common groundsel; type: in vivo, Senecio vulgaris; conditions: Postemergence, 0 to 100 scale
dallisgrass = assay: Test D dallisgrass; type: in vivo, Paspalum dilatatum; conditions: Postemergence, 0 to 100 scale
goosegrass = assay: Test D goosegrass; type: in vivo, Eleusine indica; conditions: Postemergence, 0 to 100 scale
guineagrass = assay: Test D guineagrass; type: in vivo, Panicum maximum; conditions: Postemergence, 0 to 100 scale
Johnson grass [2] = assay: Test D Johnson grass; type: in vivo, Sorghum halepense; conditions: Postemergence, 0 to 100 scale
pitted morningglory = assay: Test D pitted morningglory; type: in vivo, Ipomoea lacunosa; conditions: Postemergence, 0 to 100 scale
purple nutsedge [3] = assay: Test D purple nutsedge; type: in vivo, Cyperus rotundus; conditions: Postemergence, 0 to 100 scale
sandbur = assay: Test D sandbur; type: in vivo, Cenchrus echinatus; conditions: Postemergence, 0 to 100 scale
Spanishneedles = assay: Test D Spanishneedles; type: in vivo, Bidens bipinnata; conditions: Postemergence, 0 to 100 scale
surinam grass = assay: Test D surinam grass; type: in vivo, Brachiaria decumbens; conditions: Postemergence, 0 to 100 scale
tall mallow = assay: Test D tall mallow; type: in vivo, Malva sylvestris; conditions: Postemergence, 0 to 100 scale
Green foxtail [4] = assay: Test D green foxtail; type: in vivo; conditions: Rate 250 g/ha; Postemergence; 0 to 100 scale
Green foxtail [5] = assay: Test D green foxtail; type: in vivo; conditions: Postemergence, 0 to 100 scale, 0 no injury, 100 complete control
Green foxtail [6] = assay: Test D green foxtail; type: in vivo; conditions: Postemergence, 0 to 100 scale, 0 no injury, 100 complete control; remark: listed apart in the source
Green foxtail [7] = assay: Test D green foxtail; type: in vivo; conditions: Postemergence, 0 to 100 scale, 0 no injury, 100 complete control; remark: listed apart in the source
Alexandergrass = assay: Test D Alexandergrass; type: in vivo, Brachiaria plantaginea; conditions: Preemergence, 0 to 100 scale
Summary of the method: (§1)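 Greenhouse pots, sandy loam, single species per pot. Preemergence tests: soil-surface application ≤1 day after planting. Compound formulated in non-phytotoxic solvent with surfactant. Visual rating 14–21 DAT, scale 0–100.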

common ragweed [8] = assay: Test D common ragweed; type: in vivo, Ambrosia elatior; conditions: Preemergence, 0 to 100 scale
Summary of the method: as §1

Johnson grass [9] = assay: Test D Johnson grass; type: in vivo, Sorghum halepense; conditions: Preemergence, 0 to 100 scale
Source text: (§2) Seeds, tubers, or plant parts of Alexandergrass (Brachiaria plantaginea), bermuda-grass (Cynodon dactylon), common pursiane (Portulaca oleracea), common ragweed (Ambrosia elatior), common groundsel (Senecio vulgaris), dallisgrass (Paspalum dilatatum), goosegrass (Eleusine indica), guineagrass (Panicum maximum), itchgrass (Rottboellia exaltata), Johnson grass (Sorghum halepense), large crabgrass (Digitaria sanguinalis), pitted morningglory (Ipomoea lacunosa), purple nutsedge (Cyperus rotundus), sandbur (Cenchrus echinatus), sourgrass (Trichachne insularis), Spanishneedles (Bidens bipinnata), surinam grass (Brachiaria decumbens) and tall mallow (Malva sylvestris) were planted into greenhouse pots of flats containing greenhouse planting medium. Plant species were grown in separate pots or individual compartments. Preemergence applications were made within one day of planting the seed or plant part.
(§3) Test chemicals were formulated in a non-phytotoxic solvent mixture which included a surfactant and applied preemergence to the surface of the pot containing seeds in a sandy loam soil. Untreated control pots and treated pots were placed in the greenhouse for growth and visually evaluated for injury 14 to 21 days after herbicide application. Plant response ratings, summarized in Table C, are based on a 0 to 100 scale where 0 is no injury and 100 is complete control. A dash (−) response means no test result.

purple nutsedge [10] = assay: Test D purple nutsedge; type: in vivo, Cyperus rotundus; conditions: Preemergence, 0 to 100 scale
Source text: as §2, §3

[11] = Rate 16 g/ha, 0 no injury, 100 complete control
[12] = Rate 32 g/ha, 0 no injury, 100 complete control
[13] = Rate 64 g/ha, 0 no injury, 100 complete control
[14] = Rate 125 g/ha, 0 no injury, 100 complete control

CCC(CC)n1c(=O)on(C(=O)N(c2ccc(F)cc2)C(C)C)c1=O [Compound 358]
—30: Plant response rating, C. ragweed (common ragweed [1]; [13])
20: Plant response rating, Goosegrass (goosegrass; [12]) | Guineagrass plant response rating (guineagrass; [13]) | Plant response rating, Sandbur (sandbur; [12])
80: Plant response rating, Tall Mallow (tall mallow; Rate 250 g/ha)
30: Plant response rating, Dallisgrass (dallisgrass; [12]) | Plant response rating, Tall Mallow (tall mallow; [12]) | Plant response rating, Green foxtail (Green foxtail [5]; Rate 32 g/ha) | Plant response rating, Green foxtail (Green foxtail [7]; Rate 32 g/ha)
90: Plant response rating, Sandbur (sandbur; Rate 250 g/ha)
50: Surinam grass plant response rating (surinam grass; [14]) | Plant response rating, Surinam grass (surinam grass; Rate 250 g/ha) | Tall Mallow plant response rating (tall mallow; [13])
70: Plant response rating, C. ragweed (common ragweed [1]; [14]) | Plant response rating, C. ragweed (common ragweed [1]; Rate 250 g/ha) | Tall Mallow plant response rating (tall mallow; [14])
0: Plant response rating, C. purslane (common pursiane; [11]) | Plant response rating, C. purslane (common pursiane; [12]) | Plant response rating, C. purslane (common pursiane; [13]) | Plant response rating, C. purslane (common pursiane; [14]) | Plant response rating, C. purslane (common pursiane; Rate 250 g/ha) | Plant response rating, C. ragweed (common ragweed [1]; [11]) | Plant response rating, C. ragweed (common ragweed [1]; [12]) | Plant response rating, Com. groundsel (common groundsel; [11]) | Plant response rating, Com. groundsel (common groundsel; [12]) | Plant response rating, Com. groundsel (common groundsel; [13]) | Plant response rating, Dallisgrass (dallisgrass; [11]) | Plant response rating, Goosegrass (goosegrass; [11]) | Plant response rating, Guineagrass (guineagrass; [11]) | Plant response rating, Guineagrass (guineagrass; [12]) | Plant response rating, Johnsongrass (Johnson grass [2]; [11]) | Plant response rating, Johnsongrass (Johnson grass [2]; [12]) | Plant response rating, Johnsongrass (Johnson grass [2]; [13]) | Plant response rating, Johnsongrass (Johnson grass [2]; [14]) | Plant response rating, P. morninglory (pitted morningglory; [11]) | Plant response rating, P. morninglory (pitted morningglory; [12]) | Plant response rating, P. morninglory (pitted morningglory; [13]) | Plant response rating, P. morninglory (pitted morningglory; [14]) | Plant response rating, P. morninglory (pitted morningglory; Rate 250 g/ha) | Plant response rating, Purple nutsedge (purple nutsedge [3]; [11]) | Plant response rating, Purple nutsedge (purple nutsedge [3]; [12]) | Purple nutsedge plant response rating (purple nutsedge [3]; [13]) | Purple nutsedge plant response rating (purple nutsedge [3]; [14]) | Plant response rating, Sandbur (sandbur; [11]) | Plant response rating, Spanishneedles (Spanishneedles; [11]) | Plant response rating, Spanishneedles (Spanishneedles; [12]) | Spanishneedles plant response rating (Spanishneedles; [13]) | Spanishneedles plant response rating (Spanishneedles; [14]) | Plant response rating, Spanishneedles (Spanishneedles; Rate 250 g/ha) | Plant response rating, Surinam grass (surinam grass; [11]) | Plant response rating, Surinam grass (surinam grass; [12]) | Surinam grass plant response rating (surinam grass; [13]) | Plant response rating, Tall Mallow (tall mallow; [11]) | Plant response rating, Green foxtail (Green foxtail [5]; Rate 16 g/ha) | Plant response rating, Green foxtail (Green foxtail [7]; Rate 16 g/ha)
10: Plant response rating, Purple nutsedge (purple nutsedge [3]; Rate 250 g/ha)
100: Plant response rating, Dallisgrass (dallisgrass; [13]) | Plant response rating, Dallisgrass (dallisgrass; [14]) | Plant response rating, Dallisgrass (dallisgrass; Rate 250 g/ha) | Plant response rating, Goosegrass (goosegrass; [13]) | Plant response rating, Goosegrass (goosegrass; [14]) | Plant response rating, Goosegrass (goosegrass; Rate 250 g/ha) | Plant response rating, Guineagrass (guineagrass; [13]) | Plant response rating, Guineagrass (guineagrass; [14]) | Plant response rating, Guineagrass (guineagrass; Rate 250 g/ha) | Plant response rating, Johnsongrass (Johnson grass [2]; Rate 250 g/ha) | Sandbur plant response rating (sandbur; [13]) | Sandbur plant response rating (sandbur; [14]) | Plant response rating, Green foxtail (Green foxtail [4]) | Green foxtail plant response rating (Green foxtail [6]; Rate 64 g/ha) | Green foxtail plant response rating (Green foxtail [6]; Rate 125 g/ha)
40: Plant response rating, Com. groundsel (common groundsel; Rate 250 g/ha)

Cc1ccc(-n2c(=O)on(C(=O)N(c3ccc(F)cc3F)C(C)C)c2=O)c(C)c1 [Compound 24]
65: Plant response rating, Alexandergrass (Alexandergrass; Rate 250 g/ha)
85: Plant response rating, Johnsongrass (Johnson grass [9]; Rate 250 g/ha) | Plant response rating, Johnsongrass (Johnson grass [9]; Rate 500 g/ha)
0: Plant response rating, C. ragweed (common ragweed [8]; [12]) | Plant response rating, C. ragweed (common ragweed [8]; [13]) | Plant response rating, C. ragweed (common ragweed [8]; [14]) | Plant response rating, C. ragweed (common ragweed [8]; Rate 250 g/ha) | Plant response rating, C. ragweed (common ragweed [8]; Rate 500 g/ha) | Plant response rating, Johnsongrass (Johnson grass [9]; [12]) | Plant response rating, Johnsongrass (Johnson grass [9]; [13]) | Plant response rating, Johnsongrass (Johnson grass [9]; [14]) | Plant response rating, Purple nutsedge (purple nutsedge [10]; [12]) | Purple nutsedge plant response rating (purple nutsedge [10]; [13]) | Purple nutsedge plant response rating (purple nutsedge [10]; [14]) | Plant response rating, Purple nutsedge (purple nutsedge [10]; Rate 250 g/ha) | Plant response rating, Purple nutsedge (purple nutsedge [10]; Rate 500 g/ha)
98: Plant response rating, Alexandergrass (Alexandergrass; Rate 500 g/ha)
10: Plant response rating, Alexandergrass (Alexandergrass; [12]) | Plant response rating, Alexandergrass (Alexandergrass; [13]) | Plant response rating, Alexandergrass (Alexandergrass; [14])

CC(C)N(C(=O)n1oc(=O)n(C(C)C)c1=O)c1ccccc1 [Compound 113]
30: Purple nutsedge plant response rating (purple nutsedge [10]; [14])
60: Plant response rating, Johnsongrass (Johnson grass [9]; [12])
90: Plant response rating, Johnsongrass (Johnson grass [9]; [14])
80: Plant response rating, Johnsongrass (Johnson grass [9]; [13])
65: Plant response rating, Alexandergrass (Alexandergrass; [11])
98: Plant response rating, Alexandergrass (Alexandergrass; [13]) | Plant response rating, Alexandergrass (Alexandergrass; [14])
20: Purple nutsedge plant response rating (purple nutsedge [10]; [13])
85: Plant response rating, Alexandergrass (Alexandergrass; [12])
0: Plant response rating, C. ragweed (common ragweed [8]; [11]) | Plant response rating, C. ragweed (common ragweed [8]; [12]) | Plant response rating, C. ragweed (common ragweed [8]; [13]) | Plant response rating, C. ragweed (common ragweed [8]; [14]) | Plant response rating, Johnsongrass (Johnson grass [9]; [11]) | Plant response rating, Purple nutsedge (purple nutsedge [10]; [11]) | Plant response rating, Purple nutsedge (purple nutsedge [10]; [12])
